This note sets out measurements from PubChem BioAssay (NCI).

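Following 48 hours of exposure in 96-well plates, responses at five concentrations were used to interpolate endpoints linearly. GI50: concentration for 50% inhibition of growth. TGI is the concentration that stops growth completely.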

Holding throughout (assay): DTP human tumour cell line panel, 48 h
The test system of assay [1] is ACHN renal.
The test system of assay [2] is HCC-2998 colon.
For assay [3], the system named is HOP-92 NSCLC.
The test system of assay [4] is MCF7 breast.
Assay [5] has as its system NCI-H460 lung.
Assay [6] relates to SF-268 CNS.
Assay [7] deals with SK-MEL-2 melanoma.
Assay [8] deals with SK-OV-3 ovarian.
The test system of assay [9] is U251 CNS.
The subject of assay [10] is HOP-62 NSCLC.

Take `COc1ccc(/[N+]([O-])=C/c2ccccc2OC(=S)S)cc1`: the TGI (as a rule, the concentration giving total growth inhibition) was over 100 µM in [1]; over 100 µM in [2]; 64.4 µM in assay [3]; over 100 µM in [4]; over 100 µM in [5]; over 100 µM in [6]. Also, the TGI in assay [7] is 65.7 µM; in [8] it was over 100 µM; in assay [9] it was over 100 µM.
Regarding `CC(C)[C@H](NC(=O)OCc1ccccc1)C(=O)N[C@H](/C=C/C(=O)OC(C)(C)C)CO`, the TGI in assay [1], in [2], in [10], in assay [3], in [4] and in assay [5] was over 100 µM each time. Besides, the TGI in assay [6], in assay [7] and in [8] was over 100 µM each time.
For `CSC(=NCCCN=C(NS(=O)(=O)c1ccc(Cl)cc1)SC)NS(=O)(=O)c1ccc(Cl)cc1`, the TGI was over 100 µM in assay [1]; 83.6 µM in [2]; over 100 µM in [10]; 67.9 µM in assay [3]; 52.8 µM in assay [4]; over 100 µM in [5]. Moreover, the TGI in [6] is over 100 µM; in assay [7], 43.6 µM; in assay [8], over 100 µM; in [9] it was over 100 µM.
As for `O=C1c2sccc2C(=O)c2c(CO)csc21`, the TGI in assay [1] is 12.2 µM; in assay [2], 13.7 µM; in assay [10], 25.5 µM; in assay [3], 26.1 µM; in assay [4], 18.9 µM; in [5], 6.96 µM. The TGI was 30.7 µM in [6], 8.63 µM in [7], 28.2 µM in [8] and 23.2 µM in assay [9].
`CNC(=O)N(C)C(=O)c1ccccc1C(=O)N(C)C(=O)NC`: the TGI in assay [1], in assay [2], in [10], in assay [3], in assay [4] and in assay [5] was over 10 µM in each case. Besides, the TGI in [6], in assay [7], in assay [8] and in assay [9] was over 10 µM each time.
`Nc1cc(O)c2cc(N=Nc3ccc(N=Nc4ccc(N=Nc5ccc6cc(S(=O)(=O)O)cc(S(=O)(=O)O)c6c5)c5ccccc45)c4cc(S(=O)(=O)O)ccc34)c(S(=O)(=O)O)cc2c1`: the TGI was over 100 µM in assay [2]; over 100 µM in assay [10]; over 93.3 µM in assay [3]; over 100 µM in assay [4]; over 100 µM in assay [5]; over 100 µM in assay [6]. For the same compound, the TGI in assay [7], in [8] and in assay [9] was over 100 µM throughout.
Regarding `CCOC(=O)C(NC(=O)c1cccc(Cl)c1)(N1CCN(c2cc3c(cc2F)c(=O)c(C(=O)O)cn3CC)CC1)C(F)(F)F` (centres undefined), the TGI in assay [1] turned out to be 32.9 µM; in [2], 27.5 µM; in assay [10] it was 36.6 µM; in assay [3], 33.4 µM; in assay [4], 37.2 µM; in [5], 81.2 µM. For the same compound, the TGI in assay [6] amounted to 35.3 µM; in [7], 31.1 µM; in [8], 64.2 µM; in assay [9], 20.9 µM.
On to `CC(C)S1=C2C(=O)CC(C)(C)CC2=Nc2ccccc21` (centres undefined), for which the TGI in assay [1], in assay [2], in assay [10], in [3], in [4] and in assay [5] was over 100 µM each time. In addition, the TGI in assay [6], in assay [7], in assay [8] and in assay [9] was over 100 µM each time.
Regarding `CN1Cc2c(ccc3c2OCO3)[C@@H]2[C@H](O)Cc3cc4c(cc3[C@@H]21)OCO4`, the TGI is over 100 µM in assay [1]; 4.49 µM in assay [2]; 28.1 µM in assay [10]; over 100 µM in [3]; over 48.7 µM in assay [4]; over 100 µM in [5]. In addition, the TGI was over 26.5 µM in assay [6], over 27.1 µM in assay [7], over 29.9 µM in [8] and over 25.1 µM in assay [9].
On to `Clc1cc2ncn(C3CCCO3)c2cc1Cl` (centres undefined), for which the TGI in [1], in assay [2], in [10], in [3], in [4] and in [6] was over 100 µM throughout. The TGI in assay [7], in assay [8] and in assay [9] was over 100 µM each time.
For the compound `C(/Cc1ccc2c(c1)OCO2)=N\NC1=NCCCCN1`, the TGI in assay [1], in [2], in assay [10], in [3], in assay [4] and in assay [5] was over 100 µM throughout. In addition, the total growth inhibition concentration (TGI) in assay [6], in assay [7], in assay [8] and in [9] was over 100 µM throughout.
Turning to `CCN(CC)CCCNc1nnc(C)c2[nH]c3ccccc3c12`, the TGI is 59.9 µM in assay [1]; 22.2 µM in assay [2]; 35.5 µM in assay [10]; 55 µM in assay [3]; over 100 µM in assay [4]; 30.9 µM in assay [5]. Besides, the TGI is 34.7 µM in [6], 33.3 µM in assay [7], 46.8 µM in assay [8] and over 100 µM in [9].
As to `CCOC(=O)N/N=C(/N)Cc1ccc(Cl)cc1`, the TGI in assay [1], in assay [2], in [10], in [3], in assay [4] and in assay [6] was over 100 µM in each case. In addition, the TGI in assay [7], in [8] and in assay [9] was over 100 µM each time.
In the case of `Nc1nc(Nc2cc(F)c(Cl)c(F)c2)cc(=O)[nH]1`, the total growth inhibition concentration (TGI) is over 100 µM in assay [1]; 61.5 µM in [2]; over 100 µM in [10]; over 100 µM in [3]; over 100 µM in assay [4]; over 100 µM in assay [5]. Moreover, the TGI in [6], in assay [7], in [8] and in [9] was over 100 µM throughout.
Consider `CCCCCCCCCCCC1=C(O)C(=O)C=C(O)C1=O`, for which the TGI in assay [2] came to 33 µM; in [10], 12.3 µM; in assay [3] it was 11.7 µM; in assay [4] it was 42.2 µM; in [5], 9.98 µM; in assay [6], 18 µM. Moreover, the results for the TGI in assay [7], in [8] and in assay [9] were 12.5 µM, 21.2 µM and 22.1 µM, respectively.
Take `CC(=O)OC/C=C/Cn1nc(Br)c(=O)[nH]c1=O`: the TGI in assay [1], in assay [2], in assay [10], in assay [3], in assay [4] and in [5] was over 100 µM each time. For the same compound, the TGI in [6], in assay [7] and in assay [9] was over 100 µM in each case.
With `O=C(c1ccccc1)n1c2ccc(Br)cc2c2nc3ccccc3nc21`, the TGI in [1], in assay [2], in [10], in assay [3], in assay [4] and in [5] was over 100 µM in each case. The TGI in assay [6], in assay [7] and in assay [9] was over 100 µM in each case.
For `Cn1c(=O)c2c(n(C)c1=O)n1c(=O)c3ccccc3nc1n2C`, the TGI in assay [1], in [2], in [10], in [3], in assay [4] and in assay [6] was over 100 µM in each case. For the same compound, the TGI in [7], in assay [8] and in [9] was over 100 µM throughout.
`O=[N+]([O-])c1cccc2c1[nH]c1c(-c3ccccc3)nccc12`: the TGI in [2] was 13.9 µM; in assay [10], 5.04 µM; in [3] it was 3.05 µM; in assay [4] it was over 24.8 µM; in [5], over 100 µM; in assay [6] it was over 100 µM. Moreover, the TGI in assay [7] was 3 µM; in assay [8], 7.75 µM; in [9], over 30.3 µM.
Take `Cc1ccc(C(=O)C2CC3(CCC2(O)c2ccc(C)cc2)CC(=O)Nc2ccccc2C3=O)cc1` (centres undefined): the TGI in [2], in [10], in assay [3], in assay [4], in [5] and in assay [6] was over 100 µM throughout. Besides, the TGI in assay [7], in assay [8] and in assay [9] was over 100 µM throughout.
As to `CCCCCCCCCCCCCCCC(=O)OCC(COP(=O)(O)OCCNC(=O)CCSSc1ccccn1)OC(=O)CCCCCCCCCCCCCCC` (centres undefined), the TGI in [1], in assay [10], in assay [3], in assay [4], in assay [5] and in assay [6] was over 100 µM in each case. Moreover, the concentration for total growth inhibition (TGI) in [7], in [8] and in assay [9] was over 100 µM throughout.
As to `CCCCCNC(=O)OC1CCn2c1nc1c2C(=O)C(C)=C(N2CC2)C1=O` (centres undefined), the TGI was found to be 2.81 µM in [1]; 1.37 µM in [2]; 72 µM in assay [3]; 2.21 µM in assay [4]; 1.05 µM in [5]; 4.84 µM in [6]. The values for the TGI in assay [7] and in assay [9] were 3.7 µM and 4.7 µM, respectively.
On to `Oc1[nH]c2ccccc2c1N=Nc1nc(-c2ccccc2)cs1`, for which the TGI in [1] was over 100 µM; in assay [2] it was over 100 µM; in assay [10] it was 66.4 µM; in assay [3] it was over 100 µM; in assay [4], over 100 µM; in [5] it was 46.6 µM. The TGI in assay [7], in [8] and in [9] was over 100 µM each time.
Regarding `CC1SCCc2nc3ccccc3n21` (centres undefined), the TGI in assay [2], in assay [10], in [3], in [4], in assay [5] and in assay [6] was over 100 µM each time. Besides, the TGI in assay [7], in assay [8] and in [9] was over 100 µM each time.
Regarding `CCOC(=O)C1(NC(=O)OC(C)(C)C)CCc2[nH]oc(=O)c2C1` (centres undefined), the TGI in assay [1], in assay [2], in assay [10], in assay [3], in [4] and in [5] was over 100 µM each time. Further, the TGI in assay [7], in [8] and in [9] was over 100 µM each time.
For the compound `Cc1cc(N(CCCl)CCCl)ccc1/C=N\NC(=O)c1cccnc1`, the GI50 (as a rule, the concentration giving 50% growth inhibition) is 10.7 µM in assay [1]; 25 µM in assay [2]; 19.5 µM in assay [10]; 17.3 µM in [3]; 16.8 µM in assay [4]; 0.685 µM in [5]. Besides, the GI50 is 25.1 µM in [6], 27.3 µM in assay [7] and 21.6 µM in assay [9]. In addition, the TGI in assay [1] is over 100 µM; in [2] it was 97.6 µM; in [10], over 100 µM; in [3] it was 59.3 µM; in assay [4] it was over 100 µM; in assay [5], 23.3 µM. The values for the TGI in assay [6], in [7] and in assay [9] were over 100 µM, 59 µM and over 100 µM, respectively.
In the case of `O=C(NCc1ccc(Cl)c(Cl)c1)c1nc2ccccc2nc1NCc1ccc(Cl)c(Cl)c1`, the TGI in assay [1], in [2], in assay [10], in assay [3], in assay [4] and in assay [5] was over 100 µM throughout. Besides, the TGI in [6], in assay [7] and in assay [9] was over 100 µM throughout.
With `Nc1nc(N)c2ncn(Cc3ccccc3)c2n1`, the TGI in [1], in [2], in assay [10], in assay [3], in assay [4] and in [6] was over 100 µM throughout. Besides, the TGI in assay [7], in assay [8] and in assay [9] was over 100 µM throughout.
